Results taken from patent US20080166766A1, “Genetic incorporation of unnatural amino acids into proteins in mammalian cells” (The Scripps Research Institute, priority 2006, published 2008).

How the values were obtained:
[1] = test system: position 37 of GFP; assay: Fidelity of unnatural amino acid incorporation by mass spectrometry (nano-RP LC/MS/MS, ESI TOF-MS); conditions: for wild type peptide signals in tandem MS of mutant GFP sample: nano-RP LC/MS/MS of tryptic fragments, mutant GFP from T-REx CHO cells
Excerpt: To further characterize GFP-pMpa, the mutant protein was expressed in T-REx™ CHO cells transiently transfected with both pSWAN-pMpaRS and pSWAN-GFP37TAG. The protein was purified using an anti-myc antibody agarose column and then separated by SDS-PAGE. The GFP-pMpa band from the SDS-PAGE gel was digested with trypsin and analyzed by nanoscale reversed-phase liquid chromatography/mass spectrometry/mass spectrometry (nano-RP LC/MS/MS). In parallel, wild type GFP was purified from cells transfected with pcDNA4-GFP and subjected to the same analysis.
Proteolysis of affinity purified proteins (performed for wild-type and pBpa samples) was carried out by overnight incubation of proteins at 37° C. with sequencing-grade modified trypsin (Promega) using a substrate/enzyme ratio of 10:1 (wt/wt) based on the estimated protein concentration in 100 mM triethylammonium bicarbonate buffer (pH 8.5). In-gel digestions (performed for pMpa, pAzpa, pApa, and pPpa samples) were performed according to a modified EMBL procedure (see the website for EMBL, Heidelberg, Germany, Bioanalytical Research Group). Briefly, gel slices were excised to approximately 1 mm×1 mm cubes, washed for 5 minutes with water, 15 minutes with acetonitrile, and dried in a vacuum centrifuge before being rehydrated at 0° C. for 30 minutes with 12.5 ng/μl of sequencing-grade modified trypsin in 50 mM triethylammonium bicarbonate buffer (pH 8.5). Excess buffer was removed and 20 μl of 50 mM triethylammonium bicarbonate buffer (pH 8.5) was added to the gel slices before incubating at 37° C. overnight. Peptides were extracted from the gel slices as described in the protocol.
Nano-RP LC/MS/MS was performed with an HPLC pump, autosampler (Agilent Technologies, Palo Alto, Calif.), and an LTQ Orbitrap hybrid mass spectrometer (ThermoElectron, San Jose, Calif.). Tryptic digests were loaded with a pressure bomb onto a 75 μm i.d. precolumn packed with 4 cm of 5-μm Monitor C18 particles (Column Engineering, Ontario, Calif.) at a flow rate of approximately 2 μl/min. The precolumn was then connected to the HPLC pump and after several minutes of washing with solvent A the analytical column with integrated emitter tip (360 μm O.D.×75 μm i.d; 10 cm of 5 μM C18, ˜5-μm tip) was connected in series. The chromatographic profile was from 100% solvent A (0.1% aqueous acetic acid) to 50% solvent B (0.1% acetic acid in acetonitrile) in 40 min; the flow rate through the analytical column was ca. 100 nl/min.
For data-dependent experiments, the mass spectrometer was programmed to first record a high-resolution Orbitrap scan then a full-scan ion trap spectrum (m/z 500-2,000). This was followed by 10 data-dependent MS/MS scans (relative collision energy=35%; 3-Da isolation window) triggered of the ion-trap scan and finally two targeted MS/MS scans. The first targeted MS/MS scan was set to isolate and fragment the doubly charged precursor ion of the predicted unnatural amino acid modified peptide
at m/z 752.3. The raw data were searched against the MSDB database using MASCOT (Matrixscience, London, UK) for protein identification and to find the scans containing the target peptides with the unnatural amino acids as variable modification. To estimate fidelity at Y*37 of GFP-pMpa, single ion chromatograms (doubly charged precursor ions at m/z 752.3 for the wt and 759.3 for pMpa) and selected ion chromatograms (y9, y11, and y12) were integrated using the Xcalibur software package (ThermoElectron, San Jose, Calif.).
Intact protein mass spectra were acquired on an automated LC/MS system (Waters, Milford, Mass.) consisting of a capillary LC with auto-sampler and a QTOF2 mass spectrometer. GFP-pMpa (0.1 mg/ml) was loaded onto a reversed-phase protein Captrap (Michrom Bioresources, Auburn, Calif.) for desalting with 0.1% acetic acid in water and eluted with 80% acetonitrile/0.1% acetic acid at 5 μl/min into the ESI source of the mass spectrometer. […]

[2] = test system: T-REx™ CHO cells; assay: Yield of purified mutant GFP containing unnatural amino acid (pSWAN two-plasmid system); assay type: cell-based, Chinese hamster; conditions: pMpa 10 mM, pApa 10 mM, pBpa 1 mM, pAzpa 5 mM, pPpa 1 mM in media, anti-myc column purified
Excerpt: The pMpaRS gene was inserted directly after the non-regulated CMV promoter for efficient and continuous expression of pMpaRS. Another plasmid (pSWAN-GFP37TAG in FIG. 4B) containing both three tandem repeats of the BstRNACUA^Tyr gene and the GFP37TAG gene was also constructed. The gene encoding GFP37TAG was inserted after a Tet-regulated CMV promoter to minimize potential read-through of the nonsense amber codon caused by endogenous amber suppression in mammalian cells. These two plasmids were then assayed for their suppression efficiency. Because both plasmids contain three tandem repeats of the BstRNACUA^Tyr gene, varying the ratio of the two plasmids to increase the suppression level is not expected to change the total amount of the BstRNACUA^Tyr gene transfected into cells. Under optimized transfection conditions (0.5 μg of pSWAN-pMpaRS and 2.5 μg pSWAN-GFP37TAG per 2×10^6 cells), the suppression level is roughly two-fold higher than that using the three plasmids pUC18-3BstRNACUA^Tyr, pcDNA4-pMpaRS, and pcDNA4-GFP37TAG (the suppression level was determined by the number of fluorescent cells). Cells were grown for 1-2 days after induction and kept viable before harvesting. The yield of mutant GFP containing pMpa (GFP-pMpa) was also quantified. In the presence of 10 mM pMpa in the growth media, 1 μg of mutant GFP can be obtained from 2×10^7 adhesive T-REx™ CHO cells.
Transient transfection of T-REx™ CHO and 293 cells with the pSWAN-EcTyrRS variants and pSWAN-GFP37TAG (0.5 μg of pSWAN-EcTyrRS variant and 2.5 μg of pSWAN-GFP37TAG per 2×10^6 cells) all afforded roughly two-fold higher suppression levels than for the three plasmids pUC18-3BstRNACUA^Tyr, pcDNA4-EcTyrRS variant, and pcDNA4-GFP37TAG (with the exception of the pIpa specific variant). Mutant GFPs containing pApa, pBpa, pAzpa or pPpa were also expressed in T-REx™ CHO cells transfected with the pSWAN-EcTyrRS variants and pSWAN-GFP37TAG and grown in media containing the corresponding unnatural amino acid (pApa, 10 mM; pBpa, 1 mM; pAzpa, 5 mM; or pPpa, 1 mM) for 1-2 days, and purified using an anti-myc antibody column. The yields of the mutant proteins containing pApa and pAzpa were close to that for pMpa (˜1 μg per 2×10^7 cells), and the yields of mutant proteins containing pBpa and pPpa were somewhat lower (˜0.7 μg per 2×10^7 cells). Because the expression levels of EcTyrRS variants in T-REx™ CHO cells are similar, the lower yield of the mutant proteins containing pBpa and pPpa may be due to the low concentrations of unnatural amino acids in the media.
pSWAN-EcTyrRS variants and pSWAN-GFP37TAG were used to express mutant GFPs containing unnatural amino acids. T-REx™ CHO cells (Invitrogen™) were grown in 75 cm^2 tissue culture flasks (BD Biosciences) to 80-90% confluency and transfected with 2 μg of pSWAN-EcTyrRS and 10 μg pSWAN-GFP37TAG using […] FuGENE® 6. After overnight incubation, the media were changed to the fresh media containing the unnatural amino acid (pMpa, 10 mM; pApa, 10 mM; pBpa, 1 mM; pAzpa, 5 mM; and pPpa, 1 mM) and 1 μg/ml tetracycline. Cells were then grown for 1-2 days at 37° C. before harvesting, and then lysed with RIPA lysis buffer. The supernatant from the cell lysate was dialyzed against and equilibrated with PBS buffer before loading onto an anti-myc antibody agarose column (Sigma). The column was washed with 15 column volumes of PBS buffer and then eluted with 0.1 M ammonium hydroxide. The purified proteins were neutralized with 0.1 M acetic acid and analyzed by SDS-PAGE. […]

[3] = test system: Invitrogen™ T-REx™ 293 cells; assay: Amber suppression of GFP37TAG: full-length GFP expression by Western blot in T-REx 293 cells; assay type: cell-based, human; conditions: BstRNACUA^Tyr + EcTyrRS variant, unnatural amino acid in media (plpa 8 mM), 48 hours
Method: (§1) The ability of the six EcTyrRS variants together with BstRNACUA^Tyr to suppress the amber codon in GFP37TAG was then tested in the presence and absence of unnatural amino acids in the growth media. Transient transfection of cells with plasmids was carried out as described for wild type EcTyrRS. Six hours after transfection, the media were replaced by the fresh media containing 1 μg/ml tetracycline and supplemented with the corresponding unnatural amino acid (pMpa, 10 mM; pApa, 10 mM; pBpa, 1 mM; plpa, 8 mM; pAzpa, 5 mM; or pPpa, 1 mM). Cells were then grown 24 hours for T-REx™ CHO cell lines and 48 hours for T-REx™ 293 cell lines before harvesting. In both T-REx™ CHO and 293 cells, the expression of full length GFP37TAG was dependent upon the presence of unnatural amino acids in the growth media as indicated in FIG. 2 and FIG. 3. […]
(§2) For Western blot analysis, harvested cells were lysed in RIPA buffer (Upstate Biotechnology/Millipore) with a 1:100 dilution of protease inhibitor cocktail (Sigma). […] Chemiluminescence was then detected with PIERCE ECL Western Blotting substrate. For T-REx™ 293 cells, the membranes were probed with anti-His-HRP (Invitrogen™; 1:5000 dilution) and then detected with PIERCE ECL Western Blotting substrate.

[4] = test system: T-REx™ 293 cells; assay: Cellular toxicity of unnatural amino acid in growth media; assay type: cell-based; conditions: 8 mM in growth media
[5] = test system: Invitrogen™ T-REx™ CHO cells; assay: Amber suppression of GFP37TAG: full-length GFP expression by Western blot in T-REx CHO cells; assay type: cell-based, Chinese hamster; conditions: BstRNACUA^Tyr + EcTyrRS variant, unnatural amino acid in media (plpa 8 mM), 24 hours
Method: as §1, §2

Structure (SMILES) | wild type peptide signals in tandem MS of mutant GFP sample [1] | yield of mutant GFP containing the unnatural amino acid [2] [μg per 2×10^7 cells] | further results
C#CCOc1ccc(C[C@H](N)C(=O)O)cc1 [pPpa, p-propargyloxyphenylalanine] | No wild type signals could be detected | ~0.7 | –
N[C@@H](Cc1ccc(C(=O)c2ccccc2)cc1)C(=O)O [pBpa, p-benzoylphenylalanine] | trace amount of the wild type peptide | ~0.7 | –
CC(=O)c1ccc(C[C@H](N)C(=O)O)cc1 [pApa, p-acetylphenylalanine] | No wild type signals could be detected | ~1 | –
COc1ccc(C[C@H](N)C(=O)O)cc1 [pMpa, p-methoxyphenylalanine] | – | 1 | purity estimate from the three most abundant fragment ions (y9, y11, y12) in tandem MS ([1]; GFP-pMpa from T-REx CHO cells): 99.93%; fidelity for incorporation (integration of single ion chromatograms of precursor ions) ([1]; GFP-pMpa from T-REx CHO cells, tryptic peptide […]*GK): > 99.9%; wild type GFP signals in intact protein ESI TOF-MS ([1]; anti-myc purified GFP-pMpa, charge-state deconvoluted spectrum): No wild type GFP signals
N[C@@H](Cc1ccc(I)cc1)C(=O)O [plpa, p-iodophenylalanine] | – | – | expression of full length GFP37TAG [3]: no GFP expression; time until cells die (cellular toxicity) [4]: 6 h; expression of full length GFP37TAG [5]: low expression level
